Assay results: EP2343287A1, “New 2-aminothiadiazole derivatives” (Almirall, S.A., priority 2009, dated 2011)

Biological target: S1P1 (Homo sapiens, UniProt P21453)
Test: 35S-GTPyS binding assay
Format: biochemical
Details: membranes; compounds at 0.1nM-10µM; 0.1nM 35S-GTPyS; 10µM S1P used as 100% maximum efficacy; 90 min at room temperature
Protocol: The effect of the compounds was measured using a 35S-GTPyS binding assay. Briefly, membranes were incubated in a buffer containing 20 mM HEPES pH 7.4, 100 mM NaCl, 10 mM MgCl2, 10µM GDP, 50µg/ml saponin and 0.2% fatty acid-free BSA at various concentrations (0.1nM-10µM) and 0.1nM 35S-GTPyS. 10µM S1P was used as 100% maximum efficacy. The assay was incubated for 90 min at room temperature with gentle mixing, and terminated by filtrating the reaction mixture through GF/C filter plates using the Manifold Filtration System. The filters were immediately washed with sodium phosphate pH 7.4 buffers. After drying the filter plate's scintillant liquid were added to each well and 35S-GTPyS binding was measured on a Trilux Scintillation Counter.

Sequence of S1P1 (P21453 whole entry, species assumed): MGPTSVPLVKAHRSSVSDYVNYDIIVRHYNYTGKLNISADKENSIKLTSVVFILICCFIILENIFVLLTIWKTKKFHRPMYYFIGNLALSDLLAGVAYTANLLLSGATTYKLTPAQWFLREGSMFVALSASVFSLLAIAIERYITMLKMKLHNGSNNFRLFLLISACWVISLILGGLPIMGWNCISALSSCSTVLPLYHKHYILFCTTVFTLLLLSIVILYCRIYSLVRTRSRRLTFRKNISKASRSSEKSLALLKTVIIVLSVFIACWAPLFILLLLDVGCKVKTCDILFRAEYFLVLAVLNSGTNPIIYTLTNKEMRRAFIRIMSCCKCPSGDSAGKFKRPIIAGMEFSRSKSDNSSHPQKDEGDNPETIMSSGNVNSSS

SMILES | EC50 [nM]
CCCCN(Cc1ccccc1Cl)c1nnc(-c2cc(C)c(OC)c(C)c2)s1 [Example 1, N-Butyl-N-(2-chlorobenzyl)-5-(4-methoxy-3,5-dimethylphenyl)-1,3,4-thiadiazol-2-amine] | 39
CCCCN(Cc1ccccc1Cl)c1nnc(-c2cc(C)c(OCC(O)CN)c(C)c2)s1 (stereo not shown) [Example 34, 1-Amino-3-(4-{5-[butyl(2-chlorobenzyl)amino]-1,3,4-thiadiazol-2-yl}-2,6-dimethyl-phenoxy)propan-2-ol] | 32
CCCCN(Cc1ccccc1Cl)c1nnc(-c2cc(C)c(OC[C@H](O)CO)c(C)c2)s1 [Example 29, (2R)-3-(4-{5-[Butyl(2-chlorobenzyl)amino]-1,3,4-thiadiazol-2-yl}-2,6-dimethyl-phenoxy)propane-1,2-diol] | 15
CCCCN(Cc1c(Cl)cccc1Cl)c1nnc(-c2ccnc(C)c2)s1 [Example 16, N-Butyl-N-(2,6-dichlorobenzyl)-5-(2-methylpyridin-4-yl)-1,3,4-thiadiazol-2-amine] | 18

Next, values leading:

EC50 [nM] | SMILES
33 | CCCCN(Cc1ccccc1F)c1nnc(-c2cc(C)c(OCCN3CC(C(=O)O)C3)c(C)c2)s1 [Example 35, 1-[2-(4-{5-[Butyl(2-fluorobenzyl)amino]-1,3,4-thiadiazol-2-yl}-2,6-dimethyl-phenoxy)ethyl]azetidine-3-carboxylic acid]
123 | CCCCN(c1nnc(-c2ccc(CN3CC(C(=O)O)C3)cc2)s1)S(=O)(=O)Cc1ccccc1 [Example 43, 1-(4-{5-[(Benzylsulfonyl)(butyl)amino]-1,3,4-thiadiazol-2-yl}benzyl)azetidine-3-carboxylic acid]
5 | CCCCN(Cc1ccccc1F)c1nnc(-c2cc(C)c(OCCNCCC(=O)O)c(C)c2)s1 [Example 36, N-[2-(4-{5-[Butyl(2-fluorobenzyl)amino]-1,3,4-thiadiazol-2-yl}-2,6-dimethyl-phenoxy)ethyl]-beta-alanine]
